From US20230278972A1, “SUBSTITUTED HALOALKYL SULFONANILIDE HERBICIDES” (FMC Corporation, priority 2020, published 2023)

Legend:
Assay type in all cases: in vivo
[1] = system: Ryegrass, Italian (Italian ryegrass, Lolium multiflorum); assay: Test A1 postemergence, Ryegrass, Italian
Source text: (§1) Seeds of plant species selected from, blackgrass (Alopecurus myosuroides), corn (Zea mays), Foxtail, Giant (giant foxtail, Setaria faberi), goosegrass (Eleusine indica), kochia (Bassia scoparia), Oat, Wild (wild oat, Avena fatua), Pigweed, Palmer (palmer amaranth, palmer pigweed, Amaranthus palmeri), ragweed (common ragweed, Ambrosia artemisiifolia), Ryegrass, Italian (Italian ryegrass, Lolium multiflorum), soybean (Glycine max), and wheat (Triticum aestivum) were planted into a blend of loam soil and sand and treated preemergence with a directed soil spray using test chemicals formulated in a non-phytotoxic solvent mixture which included a surfactant. At the same time, plants selected from these crop and weed species and also galium (catchweed bedstraw, Galium aparine) and horseweed (Erigeron canadensis) were planted in pots containing the same blend of loam soil and sand and treated with postemergence applications of test chemicals formulated in the same manner. Plants ranged in height from 2 to 10 cm and were in the one- to two-leaf stage for the postemergence treatment. […] A dash (-) response means no test result.

[2] = system: Foxtail, Giant (giant foxtail, Setaria faberi); assay: Test A1 postemergence, Foxtail, Giant
Source text: as §1

corn (Zea mays) [3] = assay: Test A1 preemergence, corn
Source text: as §1

[4] = system: Foxtail, Giant (giant foxtail, Setaria faberi); assay: Test A1 preemergence, Foxtail, Giant
Source text: as §1

[5] = system: goosegrass (Eleusine indica); assay: Test A1 postemergence, goosegrass
Source text: as §1

[6] = system: wheat (Triticum aestivum); assay: Test A1 preemergence, wheat
Source text: as §1

[7] = system: Pigweed, Palmer (palmer amaranth, palmer pigweed, Amaranthus palmeri); assay: Test A1 postemergence, Pigweed, Palmer
Source text: as §1

[8] = system: galium (catchweed bedstraw, Galium aparine); assay: Test A1 postemergence, galium
Source text: as §1

[9] = system: Oat, Wild (wild oat, Avena fatua); assay: Test A1 preemergence, Oat, Wild
Source text: as §1

[10] = system: Pigweed, Palmer (palmer amaranth, palmer pigweed, Amaranthus palmeri); assay: Test A1 preemergence, Pigweed, Palmer
Source text: as §1

corn (Zea mays) [11] = assay: Test A1 postemergence, corn; conditions: Postemergence
Source text: as §1

[12] = system: Ryegrass, Italian (Italian ryegrass, Lolium multiflorum); assay: Test A1 preemergence, Ryegrass, Italian
Source text: as §1

[13] = system: ragweed (common ragweed, Ambrosia artemisiifolia); assay: Test A1 preemergence, ragweed
Source text: as §1

[14] = system: wheat (Triticum aestivum); assay: Test A1 postemergence, wheat
Source text: as §1

[15] = system: Oat, Wild (wild oat, Avena fatua); assay: Test A1 postemergence, Oat, Wild
Source text: as §1

[16] = system: goosegrass (Eleusine indica); assay: Test A1 preemergence, goosegrass
Source text: as §1

rice (Oryza sativa) = assay: Test B1 flooded paddy test, rice; conditions: 250 g ai/ha, Flood, applied to paddy water, 2-leaf stage, visually evaluated after 10 to 14 days
Source text: (§2) A dash (-) response means no test result.

kochia (Bassia scoparia) [17] = assay: Test A1 preemergence, kochia
Source text: as §1

[18] = system: blackgrass (Alopecurus myosuroides); assay: Test A1 postemergence, blackgrass; conditions: Postemergence, 0 to 100 scale (0 no effect, 100 complete control)
Source text: as §1

kochia (Bassia scoparia) [19] = assay: Test A1 postemergence, kochia
Source text: as §1

[20] = system: barnyardgrass (Echinochloa crus-galli); assay: Test B1 flooded paddy test, barnyardgrass; conditions: 250 g ai/ha, Flood, applied to paddy water, 2-leaf stage, visually evaluated after 10 to 14 days
Source text: as §2

[21] = system: ragweed (common ragweed, Ambrosia artemisiifolia); assay: Test A1 postemergence, ragweed
Source text: as §1

soybean (Glycine max) [22] = assay: Test A1 postemergence, soybean
Source text: as §1

soybean (Glycine max) [23] = assay: Test A1 preemergence, soybean
Source text: as §1

[24] = system: ducksalad (Heteranthera limosa); assay: Test B1 flooded paddy test, ducksalad; conditions: 250 g ai/ha, Flood, applied to paddy water, 2-leaf stage, visually evaluated after 10 to 14 days
Source text: as §2

[25] = system: blackgrass (Alopecurus myosuroides); assay: Test A1 preemergence, blackgrass
Source text: as §1

[26] = 31 g ai/ha, postemergence, 0 to 100 scale (0 no effect, 100 complete control)
[27] = Postemergence, 125 g ai/ha, 0 to 100 scale
[28] = 31 g ai/ha, 0 to 100 scale (0 no effect, 100 complete control)
[29] = 125 g ai/ha, 0 to 100 scale, 0 no effect, 100 complete control

In the case of Cc1c(C(=O)N2CCC(C)CC2)cc(N(COC(=O)C(C)(C)C)S(=O)(=O)C(F)(F)F)c(C)c1C [Compound 369], the “Ryegrass, Italian plant response rating” value [1, 26] was 0, the “Plant response rating, Ryegrass, Italian” value [1, 27] was 20 and the “Foxtail, Giant plant response rating” value [2, 26] was 20. For the same molecule, the “Plant response rating, Foxtail, Giant” value [2, 27] was 90, the “Plant response rating, Corn” value (corn (Zea mays) [3]; [28]) was 0 and the “Plant response rating, Corn” value (corn (Zea mays) [3]; [29]) was 0. The “Plant response rating, Foxtail, Giant” value [4, 28] was 0, the “Plant response rating, Foxtail, Giant” value [4, 29] was 20 and the “Goosegrass plant response rating” value [5, 26] was 0. The “Plant response rating, Goosegrass” value [5, 27] was 0, the “Plant response rating, Wheat” value [6, 28] was 0 and the “Plant response rating, Wheat” value [6, 29] was 0. For the same molecule, the “Pigweed, Palmer plant response rating” value [7, 26] was 0, the “Plant response rating, Pigweed, Palmer” value [7, 27] was 40 and the “Galium plant response rating” value [8, 26] was 60. The “Plant response rating, Galium” value [8, 27] was 80, the “Plant response rating, Oat, Wild” value [9, 28] was 0 and the “Plant response rating, Oat, Wild” value [9, 29] was 20. The “Plant response rating, Pigweed, Palmer” value [10, 28] was 0, the “Plant response rating, Pigweed, Palmer” value [10, 29] was 50 and the “Plant response rating, Corn” value (corn (Zea mays) [11]; 31 g ai/ha, 0 to 100 scale (0 no effect, 100 complete control), 10 days) was 0. For the same molecule, the “Plant response rating, Corn” value (corn (Zea mays) [11]; 125 g ai/ha, 0 to 100 scale) was 50, the “Plant response rating, Ryegrass, Italian” value [12, 28] was 40 and the “Plant response rating, Ryegrass, Italian” value [12, 29] was 40. The “Plant response rating, Ragweed” value [13, 28] was 0, the “Plant response rating, Ragweed” value [13, 29] was 90 and the “Wheat plant response rating” value [14, 26] was 0. For the same molecule, the “Plant response rating, Wheat” value [14, 27] was 20, the “Oat, Wild plant response rating” value [15, 26] was 0 and the “Plant response rating, Oat, Wild” value [15, 27] was 0. For the same molecule, the “Plant response rating, Goosegrass” value [16, 28] was 0, the “Plant response rating, Goosegrass” value [16, 29] was 50 and the “Plant response rating, Rice (0 to 100 scale, 0 is no effect, 100 is complete control)” value (rice (Oryza sativa)) was 20. For the same molecule, the “Plant response rating, Kochia” value (kochia (Bassia scoparia) [17]; [28]) was 0, the “Plant response rating, Kochia” value (kochia (Bassia scoparia) [17]; [29]) was 0 and the “Plant response rating, Blackgrass” value ([18]; 31 g ai/ha, 10 days) was 0. The “Plant response rating, Blackgrass” value ([18]; 125 g ai/ha) was 0, the “Kochia plant response rating” value (kochia (Bassia scoparia) [19]; [26]) was 0 and the “Plant response rating, Kochia” value (kochia (Bassia scoparia) [19]; [27]) was 50. For the same molecule, the “Plant response rating, Barnyardgrass (0 to 100 scale, 0 is no effect, 100 is complete control)” value [20] was 90, the “Ragweed plant response rating” value [21, 26] was 20 and the “Plant response rating, Ragweed” value [21, 27] was 80. For the same molecule, the “Soybean plant response rating” value (soybean (Glycine max) [22]; [26]) was 20, the “Plant response rating, Soybean” value (soybean (Glycine max) [22]; [27]) was 90 and the “Plant response rating, Soybean” value (soybean (Glycine max) [23]; [28]) was 0. The “Plant response rating, Soybean” value (soybean (Glycine max) [23]; [29]) was 30, the “Plant response rating, Ducksalad (0 to 100 scale, 0 is no effect, 100 is complete control)” value [24] was 65 and the “Plant response rating, Blackgrass” value [25, 28] was 0. The “Plant response rating, Blackgrass” value [25, 29] was 0.
